Measurements taken from patent publication US20230002352A1, “SULFONAMIDE DERIVATIVES AS CTPS1 INHIBITORS” (Step Pharma S.A.S., priority 2019, published 2023).
Where two headings read alike, the source gives them in different places.

Key:
human CTPS1 = target: T1, human CTPS1 (Homo sapiens, UniProt P17812); test: Human CTPS1 enzyme inhibition (ADP-Glo Max assay); type: biochemical; details: read-out: CTPS1 (Human CTPS1 Enzyme Inhibition data grouped by potency range, IC50)
T1 construct: purchased Proteros biostructures GmbH
T1 sequence (P17812 1-591): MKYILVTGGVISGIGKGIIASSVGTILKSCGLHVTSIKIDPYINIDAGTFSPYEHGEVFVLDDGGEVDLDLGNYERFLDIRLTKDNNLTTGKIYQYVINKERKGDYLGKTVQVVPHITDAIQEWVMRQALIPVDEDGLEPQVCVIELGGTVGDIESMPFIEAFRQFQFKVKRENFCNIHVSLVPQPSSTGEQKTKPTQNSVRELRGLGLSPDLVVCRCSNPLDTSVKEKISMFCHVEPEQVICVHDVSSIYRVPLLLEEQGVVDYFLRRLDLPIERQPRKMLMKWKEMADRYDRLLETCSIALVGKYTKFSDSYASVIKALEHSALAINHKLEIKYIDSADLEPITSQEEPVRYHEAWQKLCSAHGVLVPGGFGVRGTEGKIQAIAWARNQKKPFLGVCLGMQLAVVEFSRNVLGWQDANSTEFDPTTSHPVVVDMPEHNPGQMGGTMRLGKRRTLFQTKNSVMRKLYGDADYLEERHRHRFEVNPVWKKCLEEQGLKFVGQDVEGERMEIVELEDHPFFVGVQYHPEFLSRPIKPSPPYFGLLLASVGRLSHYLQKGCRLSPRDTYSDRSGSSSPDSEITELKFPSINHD
Outline: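 Full-length FLAG-His-tagged human CTPS1 and compound were preincubated 10 min at 25 °C in 50 mM Tris pH 8.0, 10 mM MgCl2, 0.01% Tween-20, 2 mM L-cysteine. Substrate mix: ATP 0.31 mM, GTP 0.034 mM, UTP 0.48 mM, glutamine 0.186 mM; linear-phase reaction at 25 °C. ADP-Glo Max luminescence; IC50 from inhibition curve.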

human CTPS1 versus CTPS2 = test: Human CTPS1 versus CTPS2 selectivity assessment by RapidFire/MS analysis; type: biochemical
Outline: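 Full-length human CTPS1 or CTPS2 was preincubated 10 min with compound in HEPES pH 8.0 at 25 °C. The 2× substrate mix was, for CTPS1, ATP 0.3, UTP 0.2, GTP 0.07 and glutamine 0.1 mM; for CTPS2, ATP 0.1, UTP 0.04, GTP 0.03 and glutamine 0.1 mM. The CTP/labelled-CTP ratio by RapidFire MS gave IC50, and selectivity was a fold ratio.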

SMILES	IC50 (human CTPS1; Table 24, ADP-Glo Max assay)	Selectivity (fold selectivity between CTPS1 and CTPS2) (human CTPS1 versus CTPS2; Table 27)	other results
CC(C)Oc1cncc(-c2ccc(C(=O)NC(C)(C)c3cncc(NS(=O)(=O)C4CC4)n3)c(F)c2)n1 [Example P221]	–	–	IC50 (human CTPS1; Table 23, ADP-Glo Max assay): 100 to 1000 nM; Selectivity (fold selectivity between CTPS1 and CTPS2) (human CTPS1 versus CTPS2; Table 26): + (2-30 fold (+))
CC(C)(NC(=O)c1ccc(-c2cncc(C(F)(F)F)n2)cc1)c1cncc(NS(=O)(=O)C2CC2)n1 [Example P222]	–	–	IC50 (human CTPS1; Table 23, ADP-Glo Max assay): 100 to 1000 nM; Selectivity (fold selectivity between CTPS1 and CTPS2) (human CTPS1 versus CTPS2; Table 26): + (2-30 fold (+))
CCOc1cncc(-c2ccc(NC(=O)C3(c4ccnc(NS(=O)(=O)C5CC5)n4)CCC(=O)CC3)nc2)n1 [Example P226, 1-(2-(Cyclopropanesulfonamido)pyrimidin-4-yl)-N-(5-(6-ethoxypyrazin-2-yl)pyridin-2-yl)-4-oxocyclohexanecarboxamide]	≤ 100 nM	+++ (>60 fold (+++))	–
CCOc1cncc(-c2ccc(NC(=O)C3(c4ccnc(NS(=O)(=O)C5CC5)n4)CCC(F)(F)CC3)nc2)n1 [Example P242]	≤ 100 nM	+++ (>60 fold (+++))	–
CCOc1cncc(-c2ccc(NC(=O)C3(c4ccnc(NS(=O)(=O)C5CC5)n4)CCC4(CC3)OCCO4)nc2)n1 [Example P244, 8-(2-(cyclopropanesulfonamido)pyrimidin-4-yl)-N-(5-(6-ethoxypyrazin-2-yl)pyridin-2-yl)-1,4-dioxaspiro[4.5]decane-8-carboxamide]	≤ 100 nM	+++ (>60 fold (+++))	–
CCOc1cncc(-c2ccc(NC(=O)C3(c4ccnc(NS(=O)(=O)C5CC5)n4)CCN(S(C)(=O)=O)CC3)nc2)n1 [Example P251]	≤ 100 nM	+++ (>60 fold (+++))	–
CCOc1cncc(-c2ccc(NC(=O)C3(c4ccnc(NS(=O)(=O)CC#N)n4)CCOCC3)nc2)n1 [Example P287, 4-(2-((cyanomethyl)sulfonamido)pyrimidin-4-yl)-N-(5-(6-ethoxypyrazin-2-yl)pyridin-2-yl)tetrahydro-2H-pyran-4-carboxamide]	–	–	IC50 (human CTPS1; Table 25, compounds where R1 is substituted by CN): ≤ 100 nM; CTPS1 (Selectivity data) (human CTPS1 versus CTPS2; Table 28, compounds where R1 is substituted by CN): +++ (>60 fold (+++))
